These results are taken from patent publication US20100184751A1, “HETEROCYCLIC COMPOUNDS FOR THE TREATMENT OF TUBERCULOSIS” (priority 2007, published 2010).

The nature of test [1]: General antimicrobial activity assay (whole-cell broth microdilution MIC, CLSI M7-A7). It is filed as cell-based. For orientation: Broth dilution looks for growth in wells or tubes with falling amounts of substance.
Test [2] concerns Mycobacterium tuberculosis H37Rv. Put plainly: Mycobacterium tuberculosis H37Rv inhibition assay (resazurin MIC). The test is classed as cell-based. As to conditions: ATCC 25618 / H37Rv, H37Rv strain (ATCC25618), Middlebrook 7H9, 37° C., six days, resazurin fluorescence after 48 hours, read-out: MIC value. A general note: Alamar Blue is a resazurin reagent that responds to reducing activity.

SMILES strings stand for the structures. Where a name gives a salt, the structure may show the parent alone. Read-outs that look alike come from different tables or passages of the source.

As usually defined, the MIC is the lowest concentration that inhibits growth of the organism. `O=c1c(Cl)cc2ncc(F)c3c2n1CC3(O)CN1CCC(NCc2cc3c(cn2)OCCO3)CC1` (racemic) [Example 24, (4R/S)-8-Chloro-4-({4-[(2,3-dihydro[1,4]dioxino[2,3-c]pyridin-7-ylmethyl)amino]-1-piperidinyl}methyl)-3-fluoro-4-hydroxy-4,5-dihydro-7H-pyrrolo[3,2,1-de]-1,5-naphthyridin-7-one Dihydrochloride]: the MIC in test [1] is below 4 µg/mL.

In test [1], `O=c1[nH]c(CNC2CCN(C[C@]3(O)Cn4c(=O)ccc5ncc(F)c3c54)CC2)nc2ccccc12` [Example 39] showed an MIC below 4 µg/mL.

Consider `CC(C)n1nnc2cc(CNC3CCN(C[C@]4(O)Cn5c(=O)ccc6ncc(F)c4c65)CC3)ccc21` [Example 47], for which the MIC in test [1] is at most 8 µg/mL.

Consider `O=c1[nH]c2ccccc2nc1CNC1CCN(C[C@]2(O)Cn3c(=O)ccc4ncc(F)c2c43)CC1` [Example 38], for which the MIC in test [1] is below 4 µg/mL.

Regarding `COc1cnc2ccc(=O)n3c2c1[C@](O)(CN1CCC(NCc2cc4c(nn2)OCCO4)CC1)C3` [Example 66], the MIC in test [1] (read-out: MIC values) is above 16 µg/mL.

In test [1], `COc1cnc2ccc(=O)n3c2c1[C@](O)(CN1CCC(NCc2cc4c(cn2)OCCO4)CC1)C3` [Example 65] yielded an MIC of at most 8 µg/mL.

`O=c1ccc2ncc(F)c3c2n1CC3(F)CN1CCC(NCc2cc3c(nn2)OCCC3)CC1` (stereo not drawn) [Example 33, 4-({4-[(6,7-Dihydro-5H-pyrano[2,3-c]pyridazin-3-ylmethyl)amino]-1-piperidinyl}methyl)-3,4-difluoro-4,5-dihydro-7H-pyrrolo[3,2,1-de]-1,5-naphthyridin-7-one Dihyclrochloride (E1 Enantiomer)]: the MIC in test [2] (144 h) was at most 4 µg/mL.

On to `O=c1ccc2ncc(F)c3c2n1C[C@@]3(O)CN1CCC(NCc2cc3c(nn2)SCCO3)CC1` [Example 19, (4S)-4-({4-[(6,7-Dihydro[1,4]oxathiino[3,2-c]pyridazin-3-ylmethyl)amino]-1-piperidinyl}methyl)-3-fluoro-4-hydroxy-4,5-dihydro-7H-pyrrolo[3,2,1-de]-1,5-naphthyridin-7-one (E1 Enantiomer Series) Dihydrochloride], for which the MIC in test [2] (144 h) was at most 4 µg/mL; in test [2] it was at most 1.7 µg/mL.

Consider `O=c1ccc2ncc(F)c3c2n1C[C@@]3(O)CN1CCC(NCc2cc3cc(F)cc(F)c3[nH]2)CC1` [Example 54, (4S)-4-[(4-{[(5,7-difluoro-1H-indol-2-yl)methyl]amino}-1-piperidinyl)methyl]-3-fluoro-4-hydroxy-4,5-dihydro-7H-pyrrolo[3,2,1-de]-1,5-naphthyridin-7-one], for which the figures for the MIC in test [2] (144 h) and in test [2] were at most 4 µg/mL and at most 1.7 µg/mL, respectively.

Regarding `O=C1CSc2ccc(CNC3CCN(C[C@]4(O)Cn5c(=O)ccc6ncc(F)c4c65)CC3)nc2N1` [Example 6, (4S)-3-Fluoro-4-hydroxy-4-[(4-{[(3-oxo-3,4-dihydro-2H-pyrido[3,2-b][1,4]thiazin-6-yl)methyl]amino}-1-piperidinyl)methyl]-4,5-dihydro-7H-pyrrolo[3,2,1-de]-1,5-naphthyridin-7-one (E1 Enantiomer Series) Dihydrochloride], the values for the MIC in test [2] (144 h) and in test [2] were at most 4 µg/mL and at most 1.7 µg/mL, respectively.

For `O=c1ccc2ncc(F)c3c2n1C[C@@]3(O)CN1CCC(NCc2cc3c(cn2)OCCS3)CC1` [Example 8A, (4S)-4-({4-[(2,3-Dihydro[1,4]oxathiino[2,3-c]pyridin-7-ylmethyl)amino]-1-piperidinyl}methyl)-3-fluoro-4-hydroxy-4,5-dihydro-7H-pyrrolo[3,2,1-de]-1,5-naphthyridin-7-one (E1 Enantiomer Series) Dihydrochloride], the results for the MIC in test [2] (144 h) and in test [2] were at most 4 µg/mL and at most 1.7 µg/mL, respectively.

Consider `O=c1ccc2ncc(F)c3c2n1C[C@@]3(O)CN1CCC(NCc2ccc3cccc(O)c3n2)CC1` [Example 49, (4S)-3-fluoro-4-hydroxy-4-[(4-{[(8-hydroxy-2-quinolinyl)methyl]amino}-1-piperidinyl)methyl]-4,5-dihydro-7H-pyrrolo[3,2,1-de]-1,5-naphthyridin-7-one], for which, in test [2] (144 h), the MIC was at most 4 µg/mL.
